Experimental data published in ChEMBL document CHEMBL1123701, “Synthesis and quantitative structure-activity relationship analysis of N-triiodoallyl- and N-iodopropargylazoles. New antifungal agents” (1987).
Values after ≈ are worked out from the molar mass of the structure shown.

Legend:
Trichophyton benhamiae = assay: Antifungal activity towards Trichophyton mentagrophytes 530324 strain; type: functional, Arthroderma benhamiae
[1] = test system: Trichophyton interdigitale; assay: Antifungal activity towards Trichophyton interdigitale; type: functional
Cryptococcus neoformans = assay: Antifungal activity against Cryptococcus neoformans Cr-1 strain; type: functional
Aspergillus fumigatus = assay: Antifungal activity against Aspergillus fumigatus Saito strain; type: functional
Candida albicans = assay: Antifungal activity against Candida albicans C-A-24 strain; type: functional

Work on `CCCCCCCc1nnnn1CC#CI` yielded an MIC (Trichophyton benhamiae) of 0.2 µg/mL (≈ 0.602 µM), an MIC [1] of 0.1 µg/mL (≈ 0.301 µM) and an MIC (Cryptococcus neoformans) of 1.56 µg/mL (≈ 4.7 µM). For the same compound, the MIC (Aspergillus fumigatus) was 0.78 µg/mL (≈ 2.35 µM) and the MIC (Candida albicans) was 6.25 µg/mL (≈ 18.8 µM).
`CCCCCc1nnn(CC#CI)n1` gave an MIC (Trichophyton benhamiae) of 0.1 µg/mL (≈ 0.329 µM), an MIC [1] of 0.1 µg/mL (≈ 0.329 µM) and an MIC (Aspergillus fumigatus) of 0.78 µg/mL (≈ 2.56 µM).
For `O=[N+]([O-])c1c(Cl)c(Cl)n(CC#CI)c1Cc1cc(Cl)cc(Cl)c1O`, the MIC (Trichophyton benhamiae) was 3.13 µg/mL (≈ 6.02 µM), the MIC [1] was 3.13 µg/mL (≈ 6.02 µM) and the MIC (Cryptococcus neoformans) was 3.13 µg/mL (≈ 6.02 µM). The MIC (Aspergillus fumigatus) was 12.5 µg/mL (≈ 24 µM) and the MIC (Candida albicans) was 25 µg/mL (≈ 48.1 µM).
`IC#CCn1nnc(C2CC2)n1` was tested, and the MIC (Trichophyton benhamiae) was 0.39 µg/mL (≈ 1.42 µM), the MIC [1] was 0.78 µg/mL (≈ 2.85 µM) and the MIC (Cryptococcus neoformans) was 1.56 µg/mL (≈ 5.69 µM). It also gave an MIC (Aspergillus fumigatus) of 0.39 µg/mL (≈ 1.42 µM) and an MIC (Candida albicans) of 1.56 µg/mL (≈ 5.69 µM).
`CCCc1nnnn1CC(I)=C(I)I` gave an MIC (Trichophyton benhamiae) of 0.1 µg/mL (≈ 0.189 µM) and an MIC [1] of 0.1 µg/mL (≈ 0.189 µM).
In the case of `Cc1cc(C)n(CC#CI)n1`, the MIC (Trichophyton benhamiae) was 0.78 µg/mL (≈ 3 µM), the MIC [1] was 0.78 µg/mL (≈ 3 µM) and the MIC (Cryptococcus neoformans) was 3.13 µg/mL (≈ 12 µM). The MIC (Aspergillus fumigatus) was 0.78 µg/mL (≈ 3 µM) and the MIC (Candida albicans) was 6.25 µg/mL (≈ 24 µM).
In the case of `CCCCCc1nnn(CC(I)=C(I)I)n1`, the MIC (Trichophyton benhamiae) was 0.1 µg/mL (≈ 0.179 µM) and the MIC [1] was 0.2 µg/mL (≈ 0.358 µM).
In the case of `CCCCCCCc1nnn(CC(I)=C(I)I)n1`, the MIC (Trichophyton benhamiae) was 0.78 µg/mL (≈ 1.33 µM) and the MIC (Candida albicans) was 12.5 µg/mL (≈ 21.3 µM).
For `CCc1nnn(CC(I)=C(I)I)n1`, the MIC (Trichophyton benhamiae) was 0.2 µg/mL (≈ 0.388 µM), the MIC [1] was 0.1 µg/mL (≈ 0.194 µM) and the MIC (Cryptococcus neoformans) was 0.78 µg/mL (≈ 1.51 µM). It also gave an MIC (Aspergillus fumigatus) of 0.2 µg/mL (≈ 0.388 µM) and an MIC (Candida albicans) of 0.78 µg/mL (≈ 1.51 µM).
`CC(C)(C)c1nnn(CC(I)=C(I)I)n1` was tested, and the MIC (Trichophyton benhamiae) was 0.39 µg/mL (≈ 0.717 µM), the MIC (Cryptococcus neoformans) was over 25 µg/mL and the MIC (Candida albicans) was over 25 µg/mL.
For `COc1ccc(-c2nnn(CC#CI)n2)cc1`, the MIC (Trichophyton benhamiae) was 0.1 µg/mL (≈ 0.294 µM), the MIC [1] was 0.1 µg/mL (≈ 0.294 µM) and the MIC (Cryptococcus neoformans) was 25 µg/mL (≈ 73.5 µM).
Compound `CCCc1nnn(CC#CI)n1` has an MIC (Trichophyton benhamiae) of 0.1 µg/mL (≈ 0.362 µM), an MIC [1] of 0.1 µg/mL (≈ 0.362 µM) and an MIC (Aspergillus fumigatus) of 0.1 µg/mL (≈ 0.362 µM).
In the case of `Clc1ccc(-c2nnn(CC#CI)n2)cc1`, the MIC (Trichophyton benhamiae) was 0.1 µg/mL (≈ 0.29 µM) and the MIC [1] was 0.2 µg/mL (≈ 0.58 µM).
`CC(C)c1nnnn1CC(I)=C(I)I` was tested, and the MIC (Trichophyton benhamiae) was 3.13 µg/mL (≈ 5.91 µM).
In the case of `CCCc1nnn(CC(I)=C(I)I)n1`, the MIC (Trichophyton benhamiae) was 0.1 µg/mL (≈ 0.189 µM) and the MIC [1] was 0.1 µg/mL (≈ 0.189 µM).
`CC(C)Cc1nnn(CC#CI)n1` was tested, and the MIC (Trichophyton benhamiae) was 0.39 µg/mL (≈ 1.34 µM), the MIC [1] was 0.39 µg/mL (≈ 1.34 µM) and the MIC (Cryptococcus neoformans) was 3.13 µg/mL (≈ 10.8 µM). It also gave an MIC (Aspergillus fumigatus) of 0.78 µg/mL (≈ 2.69 µM) and an MIC (Candida albicans) of 3.13 µg/mL (≈ 10.8 µM).
`CC(C)c1nnn(CC(I)=C(I)I)n1` was tested, and the MIC (Trichophyton benhamiae) was 0.78 µg/mL (≈ 1.47 µM) and the MIC (Candida albicans) was 6.25 µg/mL (≈ 11.8 µM).
`Oc1ccc(-c2nnn(CC#CI)n2)cc1` was tested, and the MIC (Trichophyton benhamiae) was 0.2 µg/mL (≈ 0.613 µM), the MIC [1] was 0.1 µg/mL (≈ 0.307 µM) and the MIC (Cryptococcus neoformans) was 12.5 µg/mL (≈ 38.3 µM). The MIC (Aspergillus fumigatus) was 0.39 µg/mL (≈ 1.2 µM) and the MIC (Candida albicans) was 6.25 µg/mL (≈ 19.2 µM).
`Cc1nnn(CC(I)=C(I)I)n1` gave an MIC (Trichophyton benhamiae) of 0.2 µg/mL (≈ 0.399 µM), an MIC [1] of 0.2 µg/mL (≈ 0.399 µM) and an MIC (Aspergillus fumigatus) of 0.39 µg/mL (≈ 0.777 µM). For the same compound, the MIC (Candida albicans) was 0.78 µg/mL (≈ 1.55 µM).
`Cc1nnnn1CC(I)=C(I)I` was tested, and the MIC (Trichophyton benhamiae) was 0.78 µg/mL (≈ 1.55 µM) and the MIC (Candida albicans) was 3.13 µg/mL (≈ 6.24 µM).
Work on `CCCCCCCc1nnnn1CC(I)=C(I)I` yielded an MIC (Trichophyton benhamiae) of 0.1 µg/mL (≈ 0.171 µM), an MIC [1] of 0.1 µg/mL (≈ 0.171 µM) and an MIC (Cryptococcus neoformans) of over 25 µg/mL. The MIC (Candida albicans) was over 25 µg/mL.
For `CCCCCc1nnnn1CC(I)=C(I)I`, the MIC (Trichophyton benhamiae) was 0.1 µg/mL (≈ 0.179 µM), the MIC [1] was 0.1 µg/mL (≈ 0.179 µM) and the MIC (Cryptococcus neoformans) was over 25 µg/mL.
`Clc1ccc(-c2nnnn2CC#CI)cc1` showed an MIC (Trichophyton benhamiae) of 0.2 µg/mL (≈ 0.58 µM), an MIC [1] of 0.39 µg/mL (≈ 1.13 µM) and an MIC (Aspergillus fumigatus) of 0.39 µg/mL (≈ 1.13 µM). The MIC (Candida albicans) was 1.56 µg/mL (≈ 4.53 µM).
For `O=[N+]([O-])c1cn(CC(I)=C(I)I)c(Cl)c1Cl`, the MIC (Trichophyton benhamiae) was 0.2 µg/mL (≈ 0.334 µM), the MIC (Cryptococcus neoformans) was 0.2 µg/mL (≈ 0.334 µM) and the MIC (Aspergillus fumigatus) was 0.2 µg/mL (≈ 0.334 µM). It also gave an MIC (Candida albicans) of 0.39 µg/mL (≈ 0.651 µM).
`O=[N+]([O-])c1cccn1CC(I)=C(I)I` was tested, and the MIC (Trichophyton benhamiae) was 0.2 µg/mL (≈ 0.377 µM), the MIC [1] was 0.1 µg/mL (≈ 0.189 µM) and the MIC (Cryptococcus neoformans) was 6.25 µg/mL (≈ 11.8 µM). For the same compound, the MIC (Aspergillus fumigatus) was 0.39 µg/mL (≈ 0.736 µM) and the MIC (Candida albicans) was 0.39 µg/mL (≈ 0.736 µM).
`Cc1ccc(-c2nnn(CC#CI)n2)cc1` gave an MIC (Trichophyton benhamiae) of 0.2 µg/mL (≈ 0.617 µM).
`IC(I)=C(I)Cn1nnc(-c2ccccc2)n1` showed an MIC (Trichophyton benhamiae) of 1.56 µg/mL (≈ 2.77 µM), an MIC [1] of 3.13 µg/mL (≈ 5.55 µM) and an MIC (Candida albicans) of 12.5 µg/mL (≈ 22.2 µM).
Compound `IC(I)=C(I)Cn1cnnn1` has an MIC (Trichophyton benhamiae) of 0.39 µg/mL (≈ 0.799 µM), an MIC (Cryptococcus neoformans) of 3.13 µg/mL (≈ 6.42 µM) and an MIC (Candida albicans) of 3.13 µg/mL (≈ 6.42 µM).
`O=[N+]([O-])c1ccn(CC(I)=C(I)I)c1` was tested, and the MIC (Trichophyton benhamiae) was 0.2 µg/mL (≈ 0.377 µM), the MIC (Aspergillus fumigatus) was 0.2 µg/mL (≈ 0.377 µM) and the MIC (Candida albicans) was 0.2 µg/mL (≈ 0.377 µM).
For `IC(I)=C(I)Cn1ccnc1`, the MIC (Trichophyton benhamiae) was 1.56 µg/mL (≈ 3.21 µM), the MIC [1] was 3.13 µg/mL (≈ 6.44 µM) and the MIC (Aspergillus fumigatus) was 1.56 µg/mL (≈ 3.21 µM). For the same compound, the MIC (Candida albicans) was 1.56 µg/mL (≈ 3.21 µM).
`O=[N+]([O-])c1nccn1CC(I)=C(I)I` was tested, and the MIC (Trichophyton benhamiae) was 0.78 µg/mL (≈ 1.47 µM) and the MIC (Candida albicans) was 0.78 µg/mL (≈ 1.47 µM).
Work on `O=[N+]([O-])c1cn(CC(I)=C(I)I)cn1` yielded an MIC (Trichophyton benhamiae) of 0.78 µg/mL (≈ 1.47 µM), an MIC [1] of 0.39 µg/mL (≈ 0.735 µM) and an MIC (Cryptococcus neoformans) of 6.25 µg/mL (≈ 11.8 µM). It also gave an MIC (Aspergillus fumigatus) of 0.39 µg/mL (≈ 0.735 µM) and an MIC (Candida albicans) of 3.13 µg/mL (≈ 5.9 µM).
`COC(=O)c1cccn1CC#CI` gave an MIC (Trichophyton benhamiae) of 1.56 µg/mL (≈ 5.4 µM), an MIC [1] of 1.56 µg/mL (≈ 5.4 µM) and an MIC (Cryptococcus neoformans) of 6.25 µg/mL (≈ 21.6 µM). It also gave an MIC (Aspergillus fumigatus) of 1.56 µg/mL (≈ 5.4 µM) and an MIC (Candida albicans) of 3.13 µg/mL (≈ 10.8 µM).
`IC(I)=C(I)Cn1ncnn1` was tested, and the MIC (Trichophyton benhamiae) was 0.1 µg/mL (≈ 0.205 µM), the MIC [1] was 0.1 µg/mL (≈ 0.205 µM) and the MIC (Aspergillus fumigatus) was 0.2 µg/mL (≈ 0.41 µM). For the same compound, the MIC (Candida albicans) was 0.2 µg/mL (≈ 0.41 µM).
